In brackets after ≈: the same amount, converted by molar mass.
Assays:
[1] = test system: Human immunodeficiency virus 1; test: Antiviral activity against HIV1 3B infected in human CEM-SS cells assessed as reduction in cytopathic effect after 4 days; format: functional, organism-based; conditions: Human immunodeficiency virus 1, 3B, CEM-SS, 96 h
[2] = Cytotoxicity against human CEM-SS cells assessed as reduction in cell viability by XTT assay; format: cell-based
[3] = Cmax in Sprague-Dawley rat at 2 mg/kg, iv up to 24 hrs by LC-MS/MS analysis; format: ADME, organism-based; set-up: route intravenous, dose 2 mg/kg, time <=24; conditions: in vivo
[4] = Drug concentration in Sprague-Dawley rat at 2 mg/kg, iv after 8 hrs by LC-MS/MS analysis; format: ADME, organism-based; conditions: in vivo, read-out: Drug uptake
[5] = Drug concentration in Sprague-Dawley rat at 2 mg/kg, iv after 24 hrs by LC-MS/MS analysis; format: ADME, organism-based; conditions: in vivo, read-out: Drug uptake
[6] = AUCinfinity in Sprague-Dawley rat at 2 mg/kg, iv up to 24 hrs by LC-MS/MS analysis; format: ADME, organism-based; set-up: route intravenous, dose 2 mg/kg, time <=24; conditions: in vivo
[7] = AUClast in Sprague-Dawley rat at 2 mg/kg, iv up to 24 hrs by LC-MS/MS analysis; format: ADME, organism-based; set-up: route intravenous, dose 2 mg/kg, time <=24; conditions: in vivo
[8] = Tmax in Sprague-Dawley rat at 2 mg/kg, iv up to 24 hrs by LC-MS/MS analysis; format: ADME, organism-based; conditions: in vivo
[9] = Elimination rate constant Sprague-Dawley rat at 2 mg/kg, iv up to 24 hrs by LC-MS/MS analysis; format: ADME, organism-based; conditions: in vivo
[10] = MRTlast in Sprague-Dawley rat at 2 mg/kg, iv up to 24 hrs by LC-MS/MS analysis; format: ADME, organism-based; conditions: in vivo
[11] = Cmax in Sprague-Dawley rat at 10 mg/kg, po up to 24 hrs by LC-MS/MS analysis; format: ADME, organism-based; set-up: route oral, dose 10 mg/kg, time <=24; conditions: in vivo
[12] = Drug concentration in Sprague-Dawley rat at 10 mg/kg, po after 8 hrs by LC-MS/MS analysis; format: ADME, organism-based; conditions: in vivo, read-out: Drug uptake
[13] = Drug concentration in Sprague-Dawley rat at 10 mg/kg, po after 24 hrs by LC-MS/MS analysis; format: ADME, organism-based; conditions: in vivo, read-out: Drug uptake
[14] = AUCinfinity in Sprague-Dawley rat at 10 mg/kg, po up to 24 hrs by LC-MS/MS analysis; format: ADME, organism-based; set-up: route oral, dose 10 mg/kg, time <=24; conditions: in vivo
[15] = AUClast in Sprague-Dawley rat at 10 mg/kg, po up to 24 hrs by LC-MS/MS analysis; format: ADME, organism-based; set-up: route oral, dose 10 mg/kg, time <=24; conditions: in vivo
[16] = Half life in Sprague-Dawley rat at 10 mg/kg, po up to 24 hrs by LC-MS/MS analysis; format: ADME, organism-based; conditions: in vivo
[17] = Tmax in Sprague-Dawley rat at 10 mg/kg, po up to 24 hrs by LC-MS/MS analysis; format: ADME, organism-based; conditions: in vivo
[18] = Elimination rate constant Sprague-Dawley rat at 10 mg/kg, po up to 24 hrs by LC-MS/MS analysis; format: ADME, organism-based; conditions: in vivo
[19] = MRTlast in Sprague-Dawley rat at 10 mg/kg, po up to 24 hrs by LC-MS/MS analysis; format: ADME, organism-based; conditions: in vivo
[20] = Oral bioavailability in Sprague-Dawley rat at 10 mg/kg up to 24 hrs by LC-MS/MS analysis; format: ADME, organism-based; conditions: in vivo
[21] = Stability in human liver microsomes assessed as parent compound remaining at 1 uM up to 24 hrs by LC-MS/MS analysis; format: ADME, Microsome; conditions: read-out: Stabilty
[22] = Stability in rat liver microsomes assessed as parent compound remaining at 1 uM up to 24 hrs by LC-MS/MS analysis; format: ADME, Microsome; conditions: read-out: Stabilty
[23] = Protein binding in human plasma at 1 uM after 4 hrs by LC-MS/MS analysis; format: ADME, cell-free; conditions: read-out: PPB
[24] = Protein binding in rat plasma at 1 uM after 4 hrs by LC-MS/MS analysis; format: ADME, cell-free; conditions: read-out: PPB (converted)
[25] = Thermodynamic solubility of compound in water at 2 mg after 24 hrs; format: physicochemical; conditions: read-out: Therm_solubility
[26] = Thermodynamic solubility of compound in plON buffer at 2 mg after 24 hrs; format: physicochemical; conditions: read-out: Therm_solubility
[27] = Selectivity index, ratio of CC50 for human CEM-SS cells to EC50 for Antiviral activity against HIV1 3B infected in human CEM-SS cells; format: toxicity, cell-based; conditions: CEM-SS cells, read-out: Ratio CC50/EC50
[28] = test system: Human immunodeficiency virus 1; test: Antiviral activity against HIV1 3B; format: functional, organism-based; conditions: Human immunodeficiency virus 1, 3B

C[C@H]1CO[C@@H]2Cn3cc(C(=O)NCc4ccc5nonc5c4)c(=O)c(O)c3C(=O)N12
EC50 [1]: 0.43 nM | CC50 [2]: > 10 nM | Cmax [3]: 37200 ng/mL | concentration at 8 h [4]: 24500 ng/mL | concentration at 24 h [5]: 16600 ng/mL | AUC [6]: 1139.52 µg·h/mL | AUC(0-t) at 24 h [7]: 578 µg·h/mL | Tmax [8]: 1 h | Kel [9]: 0.03 h⁻¹ | MRTlast [10]: 9.81 h | Cmax [11]: 3680 ng/mL | concentration at 8 h [12]: 3470 ng/mL | concentration at 24 h [13]: 4440 ng/mL | AUC [14]: 200.296 µg·h/mL | AUC(0-t) at 24 h [15]: 66.9 µg·h/mL | half-life [16]: 35 h | Tmax [17]: 6.67 h | k el at 24 h [18]: 5.56e-06 s⁻¹ | MRT last at 24 h [19]: 11.3 h | F [20]: 17.5% | remaining at 24 h, 1 µM [21]: 105% | remaining at 24 h, 1 µM [22]: 110% | fraction unbound at 4 h, 1 µM [23]: 0.001 | fraction unbound at 4 h, 1 µM [24]: 0.9 | solubility thermodynamic at 24 h [25]: 2.85 µg/mL (≈ 6.93 µM) | solubility thermodynamic at 24 h [26]: 3.2 µg/mL (≈ 7.78 µM)

C[C@H]1CO[C@@H]2Cn3cc(C(=O)NCc4cccs4)c(=O)c(O)c3C(=O)N12
EC50 [1]: 1.44 nM | CC50 [2]: > 10 nM | selectivity ratio [27]: > 6.9 | solubility thermodynamic at 24 h [25]: 33 µg/mL (≈ 87.9 µM) | solubility thermodynamic at 24 h [26]: 24 µg/mL (≈ 63.9 µM)

O=C(NCc1c(F)cc(F)cc1F)c1cn2c(c(O)c1=O)C(=O)N1[C@H]3CC[C@H](C3)O[C@@H]1C2 [BICTEGRAVIR]
EC50 [28]: 1 nM

C[C@H]1CO[C@@H]2Cn3cc(C(=O)NCc4ncc(F)cc4F)c(=O)c(O)c3C(=O)N12
solubility thermodynamic at 24 h [25]: 131 µg/mL (≈ 322 µM) | solubility thermodynamic at 24 h [26]: 196 µg/mL (≈ 482 µM)

From ChEMBL document CHEMBL4680174, “Synthesis, biological evaluation and in silico modeling of novel integrase strand transfer inhibitors (INSTIs)” (Eur J Med Chem, 2020)
